Measured values taken from ChEMBL document CHEMBL1158451, “Generation of ligand-based pharmacophore model and virtual screening for identification of novel tubulin inhibitors with potent anticancer activity” (J Med Chem, 2009).
Activity calls are given as the source filed them. No cut-off for these calls is given here.

Tests used:
[1] = tested on: KB; test: Growth inhibition of human KB cells by methylene blue assay; format: functional, cell-based
[2] = tested on: KB; test: Cell cycle arrest in human KB cells assessed as accumulation at G2/M phase at 400 nM after 24 hrs using propidium iodide staining by flow cytometry; format: functional
[3] = tested on: KB; test: Antiproliferative activity against human KB cells after incubation for three generations by MTS assay; format: functional, cell-based
[4] = tested on: SF-268; test: Antiproliferative activity against human SF268 cells after three generation of incubation by MTS assay; format: functional, cell-based
[5] = tested on: KB; test: Cell cycle arrest in human KB cells assessed as loss of accumulation at G0/G1 phase after 24 hrs using propidium iodide staining by flow cytometry; format: functional, cell-based
[6] = tested on: MCF7; test: Antiproliferative activity against human MCF7 cells after incubation for three generations by MTS assay; format: functional, cell-based
[7] = tested on: NCI-H460; test: Antiproliferative activity against human NCI-H460 cells after incubation for three generations by MTS assay; format: functional, cell-based
[8] = organism: Bos taurus; test: (§1) Inhibition of bovine brain tubulin polymerization after 30 mins by […] assay
[9] = as §1; set-up: species or system Bos taurus
[10] = tested on: HCT-116; test: Antiproliferative activity against human HCT116 xenografted tumor histoculture at 1 uM after 48 hrs by hematoxylin staining; format: functional, cell-based
[11] = tested on: KB; test: Cell cycle arrest in human KB cells assessed as loss of accumulation at G0/G1 phase at 400 nM using propidium iodide staining by flow cytometry; format: functional, cell-based; conditions: TDE = time-dependent effect
[12] = tested on: KB; test: Cell cycle arrest in human KB cells assessed as accumulation at G2/M phase at 800 nM after 24 hrs using propidium iodide staining by flow cytometry; format: functional
[13] = tested on: HCT-116; test: Antiproliferative activity against human HCT116 xenografted tumor histoculture at 10uM after 48 hrs by hematoxylin staining; format: functional, cell-based
[14] = tested on: KB; test: Cell cycle arrest in human KB cells assessed as accumulation at G2/M phase at 400 nM using propidium iodide staining by flow cytometry; format: functional, cell-based; conditions: TDE = time-dependent effect
[15] = tested on: HCT-116; test: Antiproliferative activity against human HCT116 xenografted tumor histoculture at 100 uM after 48 hrs by hematoxylin staining; format: functional, cell-based
[16] = tested on: KB; test: Cell cycle arrest in human KB cells assessed as accumulation at sub-G1 phase at 400 nM using propidium iodide staining by flow cytometry; format: functional, cell-based; conditions: TDE = time-dependent effect
[17] = tested on: KB; test: Cell cycle arrest in human KB cells assessed as accumulation at G2/M phase after 24 hrs using propidium iodide staining by flow cytometry; format: functional, cell-based
[18] = Inhibition of tubulin polymerization
[19] = Inhibition of bovine cerebral cortex tubulin polymerization up to 30 mins; set-up: species or system Bos taurus

| SMILES | IC50 [1] [nM] | further results |
| --- | --- | --- |
| CCCCc1[nH]c2cc(OC)ccc2c1C(=O)c1cc(OC)c(OC)c(OC)c1 | 14.3 | – |
| CCCCCCc1[nH]c2cc(OC)ccc2c1C(=O)c1cc(OC)c(OC)c(OC)c1 | 37.8 | – |
| COc1ccc2c(C(=O)c3cc(OC)c(OC)c(OC)c3)c(C)n(CCN(C)C)c2c1 | 332 | – |
| Cc1ccc(CCC(=O)Nc2ncc(Cc3cc(Cl)ccc3Cl)s2)o1 | 187 | Activity [2]: 55.6%; IC50 [3]: 187 nM; IC50 [4]: 319 nM; Activity [5]: Dose-dependent effect; IC50 [6]: 236 nM; IC50 [7]: 285 nM; Activity [8]: Dose-dependent effect; IC50 [9]: 4400 nM; Activity [10]: Active; Activity [11]: tde; Activity [12]: 70.3%; Activity [13]: Active; Activity [14]: tde; Activity [15]: Active; Activity [16]: tde; Activity [17]: Dose-dependent effect |
| COc1ccc2c(C(=O)c3cc(OC)c(OC)c(OC)c3)cn(CCCCCCO)c2c1 | 70 | – |
| COc1ccc(-n2cc(C(=O)c3cc(OC)c(OC)c(OC)c3)c3ccc(OC)cc32)cc1 | 207 | – |
| COc1cc2c(c(N)c1OC)C(=O)/C(=C\c1cc(C)c(O)c(C)c1)C2 [INDANOCINE] | – | IC50 [18]: 1700 nM |
| C1=NNCO1 [OXADIAZOLINE] | – | IC50 [19]: 4500 nM |
| COc1ccc2c(C(=O)c3cc(OC)c(OC)c(OC)c3)c(CCCCCO)[nH]c2c1 | 57.3 | – |
| CCCCCCn1cc(C(=O)c2cc(OC)c(OC)c(OC)c2)c2ccc(OC)cc21 | 455 | – |
| CCCn1cc(C(=O)c2cc(OC)c(OC)c(OC)c2)c2ccc(OC)cc21 | 180 | – |
| COc1ccc2c(C(=O)c3cc(OC)c(OC)c(OC)c3)cn(CCN3CCN(C)CC3)c2c1 | 4100 | – |
| COc1ccc2c(C(=O)c3cc(OC)c(OC)c(OC)c3)cn(CCN3CCN(c4ccccn4)CC3)c2c1 | 292 | – |
| COc1ccc2c(C(=O)c3cc(OC)c(OC)c(OC)c3)cn(CCCCO)c2c1 | 75 | – |
| CCOC(=O)Cc1[nH]c2cc(OC)ccc2c1C(=O)c1cc(OC)c(OC)c(OC)c1 | 3.9 | – |
| COc1ccc2c(C(=O)c3cc(OC)c(OC)c(OC)c3)cn(C(C)C)c2c1 | 287 | – |
| COc1ccc2c(C(=O)c3cc(OC)c(OC)c(OC)c3)cn(-c3ccc([N+](=O)[O-])cc3)c2c1 | 290 | – |
| CCN(CC)CCn1c(C)c(C(=O)c2cc(OC)c(OC)c(OC)c2)c2ccc(OC)cc21 | 288 | – |
| COc1ccc2c(C(=O)c3cc(OC)c(OC)c(OC)c3)cn(CCCCCCN(C)C)c2c1 | 2100 | – |
| COc1ccc2c(C(=O)c3cc(OC)c(OC)c(OC)c3)cn(CCN3CCCCC3)c2c1 | 93 | – |
| COc1ccc2c(C(=O)c3cc(OC)c(OC)c(OC)c3)cn(S(=O)(=O)c3ccccc3)c2c1 | 200 | – |
| COc1ccc2c(C(=O)c3cc(OC)c(OC)c(OC)c3)cn(CCN3CCCC3)c2c1 | 406 | – |
| COc1ccc2ccccc2c1-c1cc(C(=O)N/N=C/c2cccs2)[nH]n1 | 5700 | – |
| COc1ccc2c(C(=O)c3cc(OC)c(OC)c(OC)c3)c(C)n(CCN3CCCCC3)c2c1 | 222 | – |
| CCN(CC)CCn1cc(C(=O)c2cc(OC)c(OC)c(OC)c2)c2ccc(OC)cc21 | 1800 | – |

| SMILES | IC50 [1] [nM] | further results |
| --- | --- | --- |
| O=C(/C=C/c1ccccc1)c1ccccc1 [CHALCONE] | – | IC50 [18]: 10000 nM |
| COc1ccc2c(C(=O)c3cc(OC)c(OC)c(OC)c3)cn(CCN3CCC[C@@H]3CO)c2c1 | 500 | – |
| Cc1ccc(C)c(Nc2cc(C)nc(-c3ccccc3O)n2)c1 | 3000 | – |
| COc1ccc2c(C(=O)c3cc(OC)c(OC)c(OC)c3)cn(C)c2c1 | 34 | – |
| CCCc1[nH]c2cc(OC)ccc2c1C(=O)c1cc(OC)c(OC)c(OC)c1 | 11 | – |
| COc1ccc2c(C(=O)c3cc(OC)c(OC)c(OC)c3)cn(C(=O)N3CCOCC3)c2c1 | 237 | – |
| CCCCCn1cc(C(=O)c2cc(OC)c(OC)c(OC)c2)c2ccc(OC)cc21 | 350 | – |
| COc1ccc2c(C(=O)c3cc(OC)c(OC)c(OC)c3)c(CO)[nH]c2c1 | 1.2 | – |
| COc1ccc2c(C(=O)c3cc(OC)c(OC)c(OC)c3)c(CCCCO)[nH]c2c1 | 6.6 | – |
| COc1ccc2c(C(=O)c3cc(OC)c(OC)c(OC)c3)cn(CCN(C)C)c2c1 | 200 | – |
| CCn1cc(C(=O)c2cc(OC)c(OC)c(OC)c2)c2ccc(OC)cc21 | 64 | – |
| COc1ccc2c(C(=O)c3cc(OC)c(OC)c(OC)c3)cn(CCCN(C)C)c2c1 | 1700 | – |
| COc1ccc2c(C(=O)c3cc(OC)c(OC)c(OC)c3)cn(CCCCCN(C)C)c2c1 | 1800 | – |
| COc1ccc2c(C(=O)c3cc(OC)c(OC)c(OC)c3)cn(CCO)c2c1 | 55 | – |
| COc1ccc2c(C(=O)c3cc(OC)c(OC)c(OC)c3)cn(CCN3CCCCCC3)c2c1 | 280 | – |
| COc1ccc2c(C(=O)c3cc(OC)c(OC)c(OC)c3)c(CCCO)[nH]c2c1 | 92 | – |
| COc1ccc2c(C(=O)c3cc(OC)c(OC)c(OC)c3)c(CN(C)C)[nH]c2c1 | 49.8 | – |
| CCCCn1c(C)c(C(=O)c2cc(OC)c(OC)c(OC)c2)c2ccc(OC)cc21 | 346 | – |
| CCOC(=O)n1cc(C(=O)c2cc(OC)c(OC)c(OC)c2)c2ccc(OC)cc21 | 73 | – |
| COC(=O)c1[nH]c2cc(OC)ccc2c1C(=O)c1cc(OC)c(OC)c(OC)c1 | 5.5 | – |
| COc1ccc2c(C)cc(N/N=C/c3ccccc3O)nc2c1 | 2000 | – |
| COc1ccc2c(C(=O)c3cc(OC)c(OC)c(OC)c3)cn(Cc3ccncc3)c2c1 | 210 | – |
| COc1ccc2c(C(=O)c3cc(OC)c(OC)c(OC)c3)cn(CCCCN(C)C)c2c1 | 6000 | – |
| CCCCCc1[nH]c2cc(OC)ccc2c1C(=O)c1cc(OC)c(OC)c(OC)c1 | 38 | – |
